According to paper PMC3330251 (Journal of Medicinal Chemistry, 2012):

Legend:
[1] = human liver microsomes; cited from earlier work
[2] = test system: potassium ion channel coded by hERG; settings: compound concentration as high as 300 µM; cited from earlier work
[3] = cited from earlier work
[4] = test system: L. donovani (axenic amastigote stage, MHOM-ET-67/L82); settings: relative to 1d
[5] = test system: P. falciparum (erythrocytic stage, K1 strain); settings: relative to the standard (chloroquine)

Question: What does the source list for `CCc1ccc(C(=O)NC(=O)c2ccccc2O)cc1` [Compound 1a, N-(4-Ethylbenzoyl)-2-hydroxybenzamide]?
Answer: intrinsic clearance / metabolism rate in HLM [1]: 282 µL/min/mg proteins; hERG inhibition [2]: not inhibited; protein binding in human plasma [3]: 99.9%

Question: For `OC(Cn1cncn1)(Cn1cncn1)c1ccc(F)cc1F` [fluconazole, reference compound], which “protein binding in human plasma” value [3] is on record?
Answer: 23.7%

Question: For `O=C(NC(=O)c1ccccc1O)c1ccc(C(F)(F)F)cc1` [Compound 1g, 2-Hydroxy-N-(4-(trifluoromethyl)benzoyl)benzamide], which “times less potent than 1d against L. donovani” value [4] is on record?
Answer: 4 times

Question: With `O=C(NC(=O)c1ccccc1O)c1ccc2ccccc2c1` [Compound 1t, N-(2-Hydroxybenzoyl)-2-naphthamide] as the compound, how does the “fold less active than the standard against malaria parasites” value [5] read?
Answer: 2 fold
